Assay results published in ChEMBL document CHEMBL1156290, “Identification of amide bioisosteres of triazole oxytocin antagonists” (Bioorg Med Chem Lett, 2010).

Key:
Format in all cases: functional
Oxytocin receptor = target: T1, Oxytocin receptor (Homo sapiens, UniProt P30559); assay: Antagonist activity at human cloned OT receptor by cell based beta-lactamase reporter gene assay
T1 sequence (P30559 whole entry): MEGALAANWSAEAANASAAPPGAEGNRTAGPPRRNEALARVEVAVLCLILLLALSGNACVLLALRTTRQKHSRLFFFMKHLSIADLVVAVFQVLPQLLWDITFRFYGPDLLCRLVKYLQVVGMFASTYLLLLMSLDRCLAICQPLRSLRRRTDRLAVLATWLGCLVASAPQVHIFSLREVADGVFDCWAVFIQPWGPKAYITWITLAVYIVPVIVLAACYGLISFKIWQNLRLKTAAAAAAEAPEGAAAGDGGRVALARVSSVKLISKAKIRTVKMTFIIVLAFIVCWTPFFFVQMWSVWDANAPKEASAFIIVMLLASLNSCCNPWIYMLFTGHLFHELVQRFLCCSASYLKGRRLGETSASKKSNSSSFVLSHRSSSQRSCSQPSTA

Vasopressin V1a receptor = Vasopressin V1a receptor (Homo sapiens, UniProt P37288); assay: Antagonist activity at human cloned vasopressin V1A receptor by cell based beta-lactamase reporter gene assay
Vasopressin V2 receptor = Vasopressin V2 receptor (Homo sapiens, UniProt P30518); assay: Antagonist activity at human cloned vasopressin V2 receptor by cell based beta-lactamase reporter gene assay
[1] = target: T2, Vasopressin V1b receptor (Homo sapiens) (UniProt P47901); assay: Antagonist activity at human cloned vasopressin V1B receptor at 10 uM by cell based beta-lactamase reporter gene assay; design: scale not given: the % may be the effect or the level left
T2 sequence (whole entry): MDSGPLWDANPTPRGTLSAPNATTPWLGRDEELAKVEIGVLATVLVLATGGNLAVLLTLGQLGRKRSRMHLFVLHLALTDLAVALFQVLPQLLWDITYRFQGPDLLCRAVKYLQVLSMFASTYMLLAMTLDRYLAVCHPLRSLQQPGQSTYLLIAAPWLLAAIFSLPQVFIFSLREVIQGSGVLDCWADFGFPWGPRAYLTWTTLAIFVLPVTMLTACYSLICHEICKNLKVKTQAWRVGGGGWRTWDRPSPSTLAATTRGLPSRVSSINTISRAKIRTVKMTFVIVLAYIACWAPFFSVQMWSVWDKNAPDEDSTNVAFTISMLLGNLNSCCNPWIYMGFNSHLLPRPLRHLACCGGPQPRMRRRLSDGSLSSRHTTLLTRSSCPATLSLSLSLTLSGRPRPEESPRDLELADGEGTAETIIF

Sequence of Vasopressin V1a receptor (P37288 whole entry): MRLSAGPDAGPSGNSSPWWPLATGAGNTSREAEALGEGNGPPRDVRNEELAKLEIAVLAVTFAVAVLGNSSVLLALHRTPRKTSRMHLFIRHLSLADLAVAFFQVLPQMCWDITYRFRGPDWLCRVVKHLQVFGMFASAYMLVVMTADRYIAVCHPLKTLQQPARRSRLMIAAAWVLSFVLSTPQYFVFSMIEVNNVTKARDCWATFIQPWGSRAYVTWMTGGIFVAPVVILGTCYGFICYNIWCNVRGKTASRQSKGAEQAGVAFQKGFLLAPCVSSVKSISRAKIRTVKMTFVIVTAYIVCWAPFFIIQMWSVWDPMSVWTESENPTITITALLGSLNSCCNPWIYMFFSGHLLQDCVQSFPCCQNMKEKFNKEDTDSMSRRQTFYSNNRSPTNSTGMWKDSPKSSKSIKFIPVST
Sequence of Vasopressin V2 receptor (P30518 whole entry): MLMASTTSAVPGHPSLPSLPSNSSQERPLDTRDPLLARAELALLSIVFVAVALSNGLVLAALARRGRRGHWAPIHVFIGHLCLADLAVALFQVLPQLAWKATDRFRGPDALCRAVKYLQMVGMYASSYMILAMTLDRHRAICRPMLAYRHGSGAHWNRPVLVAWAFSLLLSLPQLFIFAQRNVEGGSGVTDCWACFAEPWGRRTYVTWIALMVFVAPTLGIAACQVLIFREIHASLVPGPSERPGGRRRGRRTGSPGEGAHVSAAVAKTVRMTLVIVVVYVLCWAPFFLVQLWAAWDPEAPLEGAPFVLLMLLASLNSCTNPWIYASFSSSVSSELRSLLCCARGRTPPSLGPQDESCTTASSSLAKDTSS

| SMILES | Ki (Oxytocin receptor) [nM] | Ki (Vasopressin V1a receptor) [nM] | Ki (Vasopressin V2 receptor) [nM] | Activity [1] [%] |
| --- | --- | --- | --- | --- |
| COc1ccc2oc(C(=O)N(C)c3ccc(OC)nc3)cc2c1 | 232 |  |  |  |
| COc1ccc(N(C)C(=O)c2cnc(-c3ccc(F)cc3C)cn2)cn1 | 218 | 2000 |  |  |
| COCCN(C(=O)c1cnn(-c2ccccc2)c1C)c1ccc(OC)nc1 | 98 |  |  |  |
| COCCN(C(=O)c1cnc(-c2ccc(C#N)cc2C)cn1)c1ccc(OC)nc1 | 433 | 12000 | > 10000 |  |
| CCN(C(=O)c1cnc(-c2ccc(C#N)cc2C)cn1)c1ccc(OC)nc1 | 393 | 7200 | > 10000 |  |
| CCN(C(=O)c1cnc(-c2ccccc2C)cn1)c1ccc(OC)nc1 | 129 | 2300 | > 10000 |  |
| CCN(C(=O)COc1ccc(C(C)C)cc1)c1ccc(OC)nc1 | 251 |  |  |  |
| COCCN(C(=O)c1cnc(-c2ccccc2C)cn1)c1ccc(OC)nc1 | 115 | 3300 | > 10000 |  |
| COc1ccc(N(C(=O)c2cnc(-c3ccccc3C)cn2)C(C)C)cn1 | 150 | > 10000 | > 10000 |  |
| COc1ccc(N(C)C(=O)c2cnc(-c3ccc(C#N)cc3C)cn2)cn1 | 620 | > 10000 | > 10000 |  |

The remaining lines, values ahead:

| Ki (Oxytocin receptor) [nM] | Ki (Vasopressin V1a receptor) [nM] | Ki (Vasopressin V2 receptor) [nM] | Activity [1] [%] | SMILES |
| --- | --- | --- | --- | --- |
| 91 |  |  |  | CCN(C(=O)c1cnn(-c2ccc(OC)cc2)c1C)c1ccc(OC)nc1 |
| 29 | 5900 | 343 |  | CCN(C(=O)c1cnc(-c2cccc(F)c2C)cn1)c1ccc(OC)nc1 |
| 85 |  |  |  | CCN(C(=O)c1cnn(-c2ccccc2)c1C)c1ccc(OC)nc1 |
| 84 |  |  |  | CCN(C(=O)c1ccc(-c2ccc(OC)cc2)[nH]c1=O)c1ccc(OC)nc1 |
| 97 |  |  |  | CCN(C(=O)c1ccc(-c2ccccc2)[nH]c1=O)c1ccc(OC)nc1 |
| 14 | > 10000 | 2300 |  | COc1ccc(N(C(=O)c2cnc(-c3cccc(C)c3C)cn2)C(C)C)cn1 |
| 90 |  |  |  | COc1ccc(N(C)C(=O)c2ccc(-c3ccccc3)cc2)cn1 |
| 25 | 472 | 2830 | < 20 | CCN(C(=O)c1cnc(-c2cccc(C)c2C)cn1)c1ccc(OC)nc1 |
| 48 |  |  |  | CCN(C(=O)COc1ccc2ccccc2c1)c1ccc(OC)nc1 |
| 41 |  |  |  | CCN(C(=O)c1cc(-c2ccc(C)cc2)n[nH]1)c1ccc(OC)nc1 |
| 11 | 539 | 2400 | < 20 | COCCN(C(=O)c1cnc(-c2cccc(C)c2C)cn1)c1ccc(OC)nc1 |
| 85 |  |  |  | CCN(C(=O)c1cc2cc(OC)ccc2o1)c1ccc(OC)nc1 |
| 92 | 1100 | > 10000 |  | COc1ccc(N(C)C(=O)c2cnc(-c3ccccc3C)cn2)cn1 |
